Measured values as given in article PMC9301601 (Frontiers in Pharmacology, 2022).

Columns and labels:
Ito = system: Ito; set-up: method as in Chen et al., 2020; Guo et al., 2021; settings: as a sigma-1 receptor agonist; ref Chen et al., 2020; Guo et al., 2021; cited from earlier work
[1] = system: sodium or calcium channels (SLC8A1, CACNA1C, SCN5A); experiment: RT-qPCR of cardiac ion channel genes in hiPSC-CMs: sodium or calcium channels; format: cell-based, human; settings: GAPDH housekeeping
KCNQ1 = experiment: RT-qPCR of KCNQ1 in hiPSC-CMs; format: cell-based, human
COVID-19 = system: COVID-19; set-up: method as in Lenze et al., 2020; settings: hospitalized patients with COVID-19, double-blind RCT; ref Lenze et al., 2020; cited from earlier work
ICaL = system: ICaL; set-up: method as in Chen et al., 2020; Guo et al., 2021; settings: as a sigma-1 receptor agonist; ref Chen et al., 2020; Guo et al., 2021; cited from earlier work
hiPSC-CMs = experiment: Action potential recording in hiPSC-CMs, whole-cell patch-clamp (current-clamp); format: cell-based, human; settings: for decrease of APD vs CTL / APD (APD90): 24-h incubation; for APD (APD90): CTL 364.4 ms, p < 0.0001, n = 14; for early after-depolarizations (EADs) during repolarization: transient effect, recorded within 1 hour
SARS-CoV-2 = system: SARS-CoV-2; set-up: method as in Lou et al., 2021; settings: read-out: 50% effective inhibition concentration (EC50) against SARS-CoV-2; ref Lou et al., 2021; cited from earlier work
Hsp70 = experiment: Western blot of chaperone Hsp70 after 24 h incubation; format: cell-based, human; settings: LPV 1-20 μM, especially at 10 μM
Hsp90 = experiment: Western blot of chaperone Hsp90 after 24 h incubation; format: cell-based, human; settings: LPV 1-20 μM
hERG protein = system: hERG protein; set-up: method as in Borsini et al., 2012; settings: ref Borsini et al., 2012; cited from earlier work
hERG potassium channel = system: hERG potassium channel; set-up: method as in Szendrey et al., 2021; settings: ref Szendrey et al., 2021; cited from earlier work
hERG = system: hERG; set-up: method as in Szendrey et al., 2021; settings: when acting alone; ref Szendrey et al., 2021; cited from earlier work
[2] = FLV-treated hiPSC-CMs, Figure 6H
[3] = LPV-treated hiPSC-CMs, Figure 6H

SMILES: COCCCC/C(=N\OCCN)c1ccc(C(F)(F)F)cc1 [FLV, fluvoxamine]
- effect on Ito (Ito): enhances
- mRNA expression of sodium or calcium channels ([1]; 3 μM FLV): did not significantly alter
- level of KCNQ1 nucleic acid (KCNQ1; chronic FLV administration): increased
- clinical deterioration rate (COVID-19): lower clinical deterioration rate
- effect on ICaL (ICaL): decreases
- decrease of APD vs CTL (hiPSC-CMs; 3 μM FLV): 183.6 ms
- APD (APD90) (hiPSC-CMs; 3 μM FLV): 180.8 ms
- early after-depolarizations (EADs) during repolarization (hiPSC-CMs; 3 μM FLV): induce the occurrence of EADs
- APD10 (hiPSC-CMs; [2]): 52.3 ± 8.8 ms
- Amp (amplitude) (hiPSC-CMs; [2]): 99.2±9.7 mV
- MDP (maximum diastolic potential) (hiPSC-CMs; [2]): -51.8±8.3 mV

SMILES: Cc1cccc(C)c1OCC(=O)N[C@@H](Cc1ccccc1)[C@@H](O)C[C@H](Cc1ccccc1)NC(=O)[C@H](C(C)C)N1CCCNC1=O [LPV, lopinavir]
- mRNA expression of sodium or calcium channels ([1]; 10 μM LPV): did not significantly alter
- level of KCNQ1 nucleic acid (KCNQ1; chronic LPV administration): increased
- EC50 (SARS-CoV-2): 1740 nM
- decrease of APD vs CTL (hiPSC-CMs; 10 μM LPV): 191.8 ms
- APD (APD90) (hiPSC-CMs; 10 μM LPV): 172.6 ms
- early after-depolarizations (EADs) during repolarization (hiPSC-CMs; 10 μM LPV): induce the occurrence of EADs
- APD10 (hiPSC-CMs; [3]): 48.9 ± 10.3 ms
- APD30 (hiPSC-CMs; [3]): 103.6 ± 11.2 ms
- Amp (amplitude) (hiPSC-CMs; [3]): 103.8±6.1 mV
- MDP (maximum diastolic potential) (hiPSC-CMs; [3]): -59.1±3.6 mV
- expression of Hsp70 (Hsp70): significantly increased
- expression levels of Hsp90 (Hsp90): significant reduction

SMILES: CCN(CC)CCCC(C)Nc1ccnc2cc(Cl)ccc12 (stereo not shown) [chloroquine]
- trafficking of the hERG protein (hERG protein): prompted the trafficking
- effect on the hERG current (IhERG) (hERG potassium channel): acutely and severely inhibited

SMILES: CCN(CCO)CCCC(C)Nc1ccnc2cc(Cl)ccc12 (stereo not shown) [hydroxychloroquine]
- effect on the hERG current (IhERG) (hERG potassium channel): acutely and severely inhibited

SMILES: CCC(CC)COC(=O)[C@H](C)N[P@](=O)(OC[C@H]1O[C@@](C#N)(c2ccc3c(N)ncnn23)[C@H](O)[C@@H]1O)Oc1ccccc1 [remdesivir]
- hERG maturation (hERG): promoted hERG maturation
- effect on the hERG current (IhERG) (hERG potassium channel): increased
